Consider 2 compounds from US20230131929A1, “QUINOLINE COMPOUNDS FOR TREATING RESPIRATORY DISORDERS AND VIRAL INFECTIONS” (Aldeyra Therapeutics, Inc., priority 2020, published 2023).

For assay [1], the system named is inflammatory cytokines and chemokines. Briefly: LPS-induced mouse model of acute sepsis, plasma cytokine profile. In kind it is in vivo. The following applies: for IL-10 plasma level, significance of effect: anti-inflammatory cytokine, release facilitated. The protocol:
FIG. 4 and FIG. 5 show the effect of compound I-1 on levels of various inflammatory cytokines in a preclinical sepsis model. In the study, lipopolysaccharide (LPS) was administered IP to mice. 30 minutes later, I-1 was administered IP or PO. Mice were sacrificed after 2 hours, and their plasma submitted for cytokine profile analysis. IP=intraperitoneally; PO=orally; mpk=mg per kg. […]
FIG. 4 and FIG. 5 show the effect of compound I-1 on levels of various inflammatory cytokines in a preclinical sepsis model. In the study, lipopolysaccharide (LPS) was administered IP to mice. 30 minutes later, I-1 was administered IP or PO. Mice were sacrificed after 2 hours, and their plasma submitted for cytokine profile analysis. IP=intraperitoneally; PO=orally. As shown in the table below, I-1 decreased several pro-inflammatory cytokines. * P≤0.05; ** P≤0.01; *** P≤0.001; **** P≤0.0001.

Assay [2] in a line: dextran sulfate sodium (DSS)-induced mouse model of UC. Format: in vivo. The source says: (§1) These cytokines and chemokines affect Th1, Th2, and Th17 pathways, all of which are important in immune homeostasis and disease (Kaiko et al., Immunology 123:326-338, 2007. DOI 10.1111/j.1365-2567.2007.02719.x.; Weaver et al., Annu. Rev. Pathol 8:477-512, 2013. DOI 10.1146/annurev-pathol-011110-130318).

A short description of assay [3]: rodent models of NASH. Format: in vivo. The following applies: three different rodent models of NASH.
From the text: as §1

The subject of assay [4] is leukocyte migration. Nature of the assay: LPS-induced acute lung injury model (preclinical ARDS model). In kind it is in vivo. The following applies: administered IP. The text has this: In the bottom panel, the effect of test compounds on leukocyte migration is shown in the model. […] Free RASP are toxic, leading to inflammation and molecular dysfunction by covalently binding to cellular biomolecules, and have been linked to systemic immune-mediated and inflammatory diseases, such as NASH, inflammatory bowel disease (IBD), and other diseases. […]

For assay [5] the following is noted: clinical trials; cited from earlier work.
Where [6] appears, read: 100 mpk IP 30 min after LPS IP, mice, plasma after 2 hours.
Setting [7] is: 400 mpk PO 30 min after LPS IP, mice, plasma after 2 hours.
Setting [8] is: LPS-induced mouse model of acute sepsis.
Where [9] appears, read: LPS-induced acute lung injury model.

As to `CC(C)(O)c1nc2ccccc2cc1N` [I-1], in assay [1] (setting [6]), the “GM-CSF plasma level, significance of effect” value is “* (* P≤0.05)”; the “IFNγ plasma level, significance of effect” value is listed as “*** (*** P≤0.001)”; the “IL-1β plasma level, significance of effect” value is “** (** P≤0.01)”; the “IL-5 plasma level, significance of effect” value is reported as “**** (**** P≤0.0001)”. In addition, in assay [1] (setting [6]), the “IL-7 plasma level, significance of effect” value is recorded as “** (** P≤0.01)”; the “IL-12 (p40) plasma level, significance of effect” value was “*** (*** P≤0.001)”; the “IL-17 plasma level, significance of effect” value is “** (** P≤0.01)”; the “M-CSF plasma level, significance of effect” value is given as “* (* P≤0.05)”. In assay [1] (setting [6]), the “MIP-1α plasma level, significance of effect” value is on record as “** (** P≤0.01)”; the “MIP-1β plasma level, significance of effect” value is listed as “** (** P≤0.01)”; the “MIP-2 plasma level, significance of effect” value was “** (** P≤0.01)”; the “TNFα plasma level, significance of effect” value is given as “* (* P≤0.05)”. Also, in assay [1] (setting [6]), the “VEGF plasma level, significance of effect” value is recorded as “* (* P≤0.05)” and the “IL-10 plasma level, significance of effect” value was “** (** P≤0.01)”. For the same compound, in assay [1] (setting [7]), the “IFNγ plasma level, significance of effect” value is on record as “*** (*** P≤0.001)”; the “IL-1β plasma level, significance of effect” value is “** (** P≤0.01)”; the “IL-5 plasma level, significance of effect” value is given as “**** (**** P≤0.0001)”; the “IL-7 plasma level, significance of effect” value is given as “* (* P≤0.05)”. Besides, in assay [1] (setting [7]), the “IL-12 (p40) plasma level, significance of effect” value is given as “**** (**** P≤0.0001)”; the “IL-15 plasma level, significance of effect” value is listed as “** (** P≤0.01)”; the “IL-17 plasma level, significance of effect” value is listed as “* (* P≤0.05)”; the “M-CSF plasma level, significance of effect” value is given as “*** (*** P≤0.001)”. In assay [1] (setting [7]), the “MCP-1 plasma level, significance of effect” value is listed as “** (** P≤0.01)”; the “MIP-1α plasma level, significance of effect” value is reported as “* (* P≤0.05)”; the “MIP-1β plasma level, significance of effect” value is on record as “* (* P≤0.05)”; the “IL-10 plasma level, significance of effect” value is recorded as “** (** P≤0.01)”. Besides, in assay [1] (setting [8]), the “release of inflammatory cytokines and chemokines” value is “inhibit the release”; the “release of the anti-inflammatory cytokine interleukin (IL)-10” value is recorded as “facilitate the release”. In addition, the “disease parameters (body weight loss, disease activity score, colon length, colon edema, colon inflammation)” value in assay [2] was “improved several disease parameters”. Moreover, the “circulating markers of liver function and inflammation (liver inflammation, steatosis, hepatocyte ballooning, fibrosis)” value in assay [3] is “may have beneficial effects”.
Take `CC(C)(O)c1nc2ccc(Cl)cc2cc1N` [I-2, reproxalap]: in assay [4] (setting [9]), the infiltrating cells result is given as “decreased infiltrating cells” and the lung function entry is “improved lung function”. The “activity in LPS-induced acute lung injury model” value in assay [4] (compared with saline and dexamethasone) is on record as “promising activity”. Also, the “effect in treating ocular inflammation” value in assay [5] is “beneficial effects”.
